Several values for one entry are separate records, joined by “and”; a condition that tells them apart may be missing. Equal entries are not always repeated. Records with an inconclusive call do not appear.
Test system: MX-1 breast xenograft, nude mice, tumor weight T/C
Test: NCI In Vivo Anticancer Drug Screen. Data for tumor model Human Mammary Carcinoma MX-1 Xenograft (intrarenal inoculation) in NU/NU Swiss (nude) mice
Settings: endpoint: mean tumor weight change, higher = larger tumour
Summary of the method: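 Activity is given as a ratio, with each measurement in the compound-treated arm divided by the matching measurement in vehicle-dosed controls. Tumour size or survival serves as the measured parameter.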

[1] = dose: 75.0 mg/kg/injection, schedule: Q04DX003 (sc), vehicle: Klucel (hydroxypropylcellulose) (HPC)
[2] = dose: 300.0 mg/kg/injection, schedule: Q04DX003 (sc), vehicle: Klucel (hydroxypropylcellulose) (HPC)
[3] = dose: 600.0 mg/kg/injection, schedule: Q04DX003 (sc), vehicle: Klucel (hydroxypropylcellulose) (HPC)
[4] = dose: 1200.0 mg/kg/injection, schedule: Q04DX003 (sc), vehicle: Klucel (hydroxypropylcellulose) (HPC)
[5] = dose: 2400.0 mg/kg/injection, schedule: Q04DX003 (sc), vehicle: Klucel (hydroxypropylcellulose) (HPC)
[6] = dose: 200.0 mg/kg/injection, schedule: Q01DX010 (sc), vehicle: saline
[7] = dose: 400.0 mg/kg/injection, schedule: Q01DX010 (sc), vehicle: saline
[8] = dose: 300.0 mg/kg/injection, schedule: Q04DX003 (sc), vehicle: saline with Tween-80
[9] = dose: 600.0 mg/kg/injection, schedule: Q04DX003 (sc), vehicle: saline with Tween-80
[10] = dose: 1200.0 mg/kg/injection, schedule: Q04DX003 (sc), vehicle: saline with Tween-80
[11] = dose: 2400.0 mg/kg/injection, schedule: Q04DX003 (sc), vehicle: saline with Tween-80
[12] = dose: 12.5 mg/kg/injection, schedule: Q04DX003 (sc), vehicle: suspension in saline
[13] = dose: 50.0 mg/kg/injection, schedule: Q01DX010 (sc), vehicle: Klucel (hydroxypropylcellulose) (HPC)

[N-]=[N+]=CC(=O)CCC(N)C(=O)O (stereo unspecified)
T/C (dose: 0.1 mg/kg/injection, schedule: Q01DX010 (sc), vehicle: saline): -45 % of control | T/C (dose: 0.1 mg/kg/injection, schedule: Q02DX005 (sc), vehicle: saline): 3 % of control | T/C (dose: 0.2 mg/kg/injection, schedule: Q01DX010 (sc), vehicle: saline): -64 % of control | T/C (dose: 0.2 mg/kg/injection, schedule: Q02DX005 (sc), vehicle: saline): -13 % of control | T/C (dose: 0.4 mg/kg/injection, schedule: Q01DX010 (sc), vehicle: saline): -80 % of control | T/C (dose: 0.8 mg/kg/injection, schedule: Q02DX005 (sc), vehicle: saline): -90 % of control | T/C (dose: 1.6 mg/kg/injection, schedule: Q02DX005 (sc), vehicle: saline): -92 % of control | T/C (dose: 3.12 mg/kg/injection, schedule: Q04DX003 (sc), vehicle: DMSO): 11 % of control | T/C (dose: 3.13 mg/kg/injection, schedule: Q04DX003 (sc), vehicle: saline): 1 % of control | T/C (dose: 3.2 mg/kg/injection, schedule: Q02DX005 (sc), vehicle: saline): -100 % of control | T/C (dose: 6.25 mg/kg/injection, schedule: Q04DX003 (sc), vehicle: DMSO): 15 % of control | T/C (dose: 6.25 mg/kg/injection, schedule: Q04DX003 (sc), vehicle: saline): 1 % of control | T/C (dose: 12.5 mg/kg/injection, schedule: Q04DX003 (sc), vehicle: DMSO): 18 % of control | T/C (dose: 12.5 mg/kg/injection, schedule: Q04DX003 (sc), vehicle: saline): 1 % of control | T/C (dose: 25.0 mg/kg/injection, schedule: Q04DX003 (sc), vehicle: DMSO): 7 % of control | T/C (dose: 25.0 mg/kg/injection, schedule: Q04DX003 (sc), vehicle: saline): -7 % of control

Nc1ncnc2c(C3OC(CO)C(O)C3O)[nH]nc12 (stereo unspecified)
T/C [1]: -100 % of control | T/C (dose: 75.0 mg/kg/injection, schedule: Q04DX003 (sc), vehicle: suspension in saline): 5 % of control | T/C (dose: 150.0 mg/kg/injection, schedule: Q04DX003 (sc), vehicle: Klucel (hydroxypropylcellulose) (HPC)): -100 % of control | T/C (dose: 150.0 mg/kg/injection, schedule: Q04DX003 (sc), vehicle: suspension in saline): 5 % of control | T/C (dose: 300.0 mg/kg/injection, schedule: Q04DX003 (sc), vehicle: suspension in saline): -79 % of control

O=c1ssc(=Nc2ccccc2)n1-c1ccccc1
T/C [2]: 65 % of control | T/C [3]: 95 % of control | T/C [4]: 112 % of control | T/C [5]: 106 % of control

O=C1OC(C(O)CO)C(O)=C1O (stereo unspecified)
T/C [6]: 107 % of control | T/C [7]: 110 % of control | T/C (dose: 1600.0 mg/kg/injection, schedule: Q01DX010 (sc), vehicle: saline): 121 % of control

Nc1ccc(Cl)cc1N
T/C (dose: 450.0 mg/kg/injection, schedule: Q04DX003 (sc), vehicle: saline with Tween-80): 116 % of control | T/C (dose: 900.0 mg/kg/injection, schedule: Q04DX003 (sc), vehicle: saline with Tween-80): 73 % of control | T/C (dose: 1800.0 mg/kg/injection, schedule: Q04DX003 (sc), vehicle: saline with Tween-80): 71 % of control

COCC1OC2OC3C(COC)OC(OC4C(COC)OC(OC5C(COC)OC(OC6C(COC)OC(OC7C(COC)OC(OC8C(COC)OC(OC1C(O)C2O)C(O)C8O)C(O)C7O)C(O)C6O)C(O)C5O)C(O)C4O)C(O)C3O (stereo unspecified) (tested in a mixture with another compound)
T/C (dose: 100.0 mg/kg/injection, schedule: Q04DX003 (sc), vehicle: Klucel (hydroxypropylcellulose) (HPC)): 82 % of control | T/C (dose: 200.0 mg/kg/injection, schedule: Q04DX003 (sc), vehicle: Klucel (hydroxypropylcellulose) (HPC)): 96 % of control | T/C (dose: 400.0 mg/kg/injection, schedule: Q04DX003 (sc), vehicle: Klucel (hydroxypropylcellulose) (HPC)): 86 % of control | T/C (dose: 800.0 mg/kg/injection, schedule: Q04DX003 (sc), vehicle: Klucel (hydroxypropylcellulose) (HPC)): 76 % of control

CCCCCCC(=O)CC(SCC)c1ccccc1Cl (stereo unspecified)
T/C [8]: 75 % of control | T/C [9]: 88 % of control | T/C [10]: 72 % of control | T/C [11]: 96 % of control

CCN(CC)CCCC(C)Nc1c2ccc(Cl)cc2nc2ccc(OC)cc12 (stereo unspecified)
T/C (dose: 50.0 mg/kg/injection, schedule: Q01DX010 (sc), vehicle: saline with Tween-80): 158 % of control | T/C (dose: 100.0 mg/kg/injection, schedule: Q01DX010 (sc), vehicle: saline with Tween-80): 110 % of control

Cc1ccc(C(=O)[O][Hg][CH2]C2COC([CH2][Hg][O]C(=O)c3ccc(C)cc3)CO2)cc1 (stereo unspecified)
T/C [2]: 109 % of control | T/C [3]: 106 % of control | T/C [4]: 72 % of control | T/C [5]: 102 % of control

CCN(CC)CC[n+]1ccc2c(C)c3[nH]c4ccc(O)cc4c3c(C)c2c1
T/C [12]: 82 % of control | T/C (dose: 25.0 mg/kg/injection, schedule: Q04DX003 (sc), vehicle: suspension in saline): 77 % of control

C[C@@H]1C[C@@H]([C@H](O)CC2CC(=O)NC(=O)C2)C(=O)[C@@H](C)C1
T/C (dose: 37.5 mg/kg/injection, schedule: Q04DX003 (sc), vehicle: saline): 105 % of control | T/C (dose: 75.0 mg/kg/injection, schedule: Q04DX003 (sc), vehicle: saline): 69 % of control | T/C (dose: 150.0 mg/kg/injection, schedule: Q04DX003 (sc), vehicle: saline): 97 % of control

COc1ccc(C(N)=O)cc1N=NN(C)C
T/C [13]: 169 % of control

Cc1ccc2c(c1)C(=O)N(CC[P+](c1ccccc1)(c1ccccc1)c1ccccc1)C2=O
T/C (dose: 25.0 mg/kg/injection, schedule: Q04DX003 (sc), vehicle: Klucel (hydroxypropylcellulose) (HPC)): 110 % of control

CCOC(=O)c1c[nH]c2oc(/C=N/N3CC(CN4CCOCC4)OC3=O)cc2c1=O (stereo unspecified)
T/C (dose: 50.0 mg/kg/injection, schedule: Q01DX010 (sc), vehicle: saline): 116 % of control | T/C (dose: 100.0 mg/kg/injection, schedule: Q01DX010 (sc), vehicle: saline): 77 % of control | T/C [6]: 98 % of control | T/C [7]: 72 % of control

C=CCNc1ccc(C)cc1
T/C (dose: 25.0 mg/kg/injection, schedule: Q01DX010 (sc), vehicle: Klucel (hydroxypropylcellulose) (HPC)): 97 % of control | T/C [13]: 69 % of control and 70 % of control | T/C (dose: 200.0 mg/kg/injection, schedule: Q01DX010 (sc), vehicle: Klucel (hydroxypropylcellulose) (HPC)): 70 % of control and 76 % of control | T/C (dose: 400.0 mg/kg/injection, schedule: Q01DX010 (sc), vehicle: Klucel (hydroxypropylcellulose) (HPC)): 16 % of control

O=C1C2(Cl)C3(Cl)C4(Cl)C(Cl)(Cl)C5(Cl)[C@]3(Cl)C1(Cl)[C@]5(Cl)C24Cl (stereo partly specified)
T/C (dose: 37.5 mg/kg/injection, schedule: Q04DX003 (sc), vehicle: Klucel (hydroxypropylcellulose) (HPC)): 120 % of control | T/C [1]: 121 % of control

CN(C=O)C(C(=O)Nc1cccc2c(OC(=O)C(N(C)C=O)(N(C)C=O)N(C)C=O)c(N=Nc3ccc(S(=O)(=O)Nc4nccs4)cc3)cc(N=Nc3ccc(S(=O)(=O)Nc4nccs4)cc3)c12)(N(C)C=O)N(C)C=O (tested in a mixture with another compound)
T/C [8]: 108 % of control | T/C [11]: 90 % of control

O=C(O)CCCc1ccc(N(CCCl)CCCl)cc1
T/C (dose: 4.0 mg/kg/injection, schedule: Q01DX010 (sc), vehicle: saline with Tween-80): -6 % of control | T/C (dose: 16.0 mg/kg/injection, schedule: Q01DX010 (sc), vehicle: saline with Tween-80): -65 % of control

CCSC(=O)N1c2ccc(OC)cc2C=CC1C#N (stereo unspecified)
T/C [9]: 119 % of control | T/C [10]: 85 % of control | T/C [11]: 57 % of control | T/C (dose: 4800.0 mg/kg/injection, schedule: Q04DX003 (sc), vehicle: saline with Tween-80): 40 % of control

NC(=S)c1cn(C2OC(CO)C(O)C2O)c2ncnc(N)c12 (stereo unspecified)
T/C (dose: 6.25 mg/kg/injection, schedule: Q04DX003 (sc), vehicle: suspension in saline): 50 % of control | T/C [12]: 9 % of control

C=CCc1cn(C2CC(O)C(CO)O2)c(=O)[nH]c1=O (stereo unspecified)
T/C (dose: 300.0 mg/kg/injection, schedule: Q04DX003 (sc), vehicle: saline): 121 % of control | T/C (dose: 600.0 mg/kg/injection, schedule: Q04DX003 (sc), vehicle: saline): 114 % of control | T/C (dose: 1200.0 mg/kg/injection, schedule: Q04DX003 (sc), vehicle: saline): 93 % of control | T/C (dose: 2400.0 mg/kg/injection, schedule: Q04DX003 (sc), vehicle: saline): 97 % of control
